Measured values published in patent publication US20150038493A1, “COMPOUNDS THAT TRAP ALPHA-OXOALDEHYDES AND ALPHA-BETA-UNSATURATED ALDEHYDES, META-COMPOUNDS CONTAINING SUCH COMPOUNDS, AND USE OF SAID COMPOUNDS IN TREATING ILLNESSES RELATED TO THE ACCUMULATION OF AGES AND ALES” (PHARMAMENS, priority 2011, published 2015).
Peptide text beside a SMILES is read from it.

Key:
[1] = system: advanced glycation end-products (AGEs) on human albumin; assay: Inhibition of AGE formation: fluorescence of human albumin incubated with glucose; assay type: biochemical; conditions: human albumin 50 g/l, glucose 500 mM, compound 50 mM, 37° C., 20 days; ex 370 nm, em 440 nm
Procedure: Human albumin at physiological concentration (50 g/l) is incubated with glucose (500 mM in phosphate buffer at 100 mM, pH=7.4) at 37° C. for 20 days in the presence or absence of the compounds tested (50 mM). A measurement of the fluorescence (reading at 440 nm after excitation at 370 nm) is then carried out on each sample. The results are expressed in the form of a fluorescence read (sample)/maximum fluorescence observed (control without scavenger compound, D=20) ratio.
A solution of human albumin (50 g/l) and of glucose (500 mM) in phosphate buffer (100 mM, pH=7.4) is prepared. 1000 μl of the previous solution are then immediately charged to tubes, each containing one of the compounds tested (50 μmol). The resulting solutions are homogenized (vortex for 10 sec) and then immediately filtered through a sterile 0.2 μm membrane into sterile capped Eppendorf tubes (1.5 ml), under a vertical laminar flow filtering hood. The tubes are then stoppered and placed at 37° C., in the dark, for 20 days. After a return to ambient temperature (22° C.), a measurement of the fluorescence (λex=370 nm, λem=440 nm) is carried out on 200 μl of each sample.

[2] = Scavenging of methylglyoxal (MGO) generated from glucose incubated at 37° C., LC-MS assay after 2,3-diaminonaphthalene derivatization; conditions: for MGO scavenging activity (in words): compound 100 μM added on 7th day, FIG. 2; for level of MGO observed after 14 days: glucose 50 mM, phosphate buffer pH 7.4, 37° C., compound added on 7th day, final concentration 100 μM
Procedure: (§1) An aqueous solution of glucose (50 mM in phosphate buffer at 100 mM, pH=7.4) is incubated at 37° C. for 14 days in order to “naturally” generate glyoxal (GO) and methylglyoxal (MGO). The compound tested is introduced on the 7th day (final concentration=100 μM). The GO and MGO concentrations of the medium are measured at regular intervals by LC-MS assaying, after derivatization with 2,3-diaminonaphthalene, in order to determine the effect of the compound tested.
(§2) The results of the assays are compared with those obtained without the addition of scavenger compound (control) and with those obtained during the addition of a reference compound (aminoguanidine, D-Dap, D-Dap-L-Leu, 8-hydroxyquinoline).
(§3) A solution S0 of glucose (50 mM) in phosphate buffer (100 mM, pH=7.4) is prepared and then filtered through a sterile 0.2 μm membrane into a sterile Falcon tube, under a vertical laminar flow filtering hood. 1000 μl of solution S0 are then charged to several sterile capped Eppendorf tubes (1.5 ml) which are then stoppered and placed at 37° C., in the dark, for 14 days (“control” series). The rest of the solution S0 is incubated in the same way, in a Falcon tube. The Eppendorf tubes are then removed, one by one, at regular intervals (approximately 24 h) and are immediately placed at −20° C. while awaiting analysis.
(§4) On D=7, an aqueous solution S1 of the compound tested (5 mM) is prepared and then filtered through a sterile 0.2 μm membrane into a sterile Falcon tube, under a vertical laminar flow filtering hood. A mixture of the solution S1 (140 μl) and of the remaining solution S0, incubated for 7 days at 37° C. (6860 μl), is then prepared before being divided up between 6 sterile Eppendorf tubes (6×1000 μl) which are subsequently stoppered and placed at 37° C., in the dark, for 7 days (“test” series). These tubes are removed, one by one, at regular intervals (approximately 24 h) and are immediately placed at −20° C. while awaiting analysis. On D=14, the tubes of the “control” and “test” series are thawed and are each treated with 100 μl of a solution of 2,3-diaminonaphthalene (10 mM) in order to derivatize the GO and the MGO, respectively in the form of GO-DAN and of MGO-DAN. After homogenization (vortex for 10 sec), the tubes are left to stand for 24 h, at 20° C., in the dark. The GO-DAN and the MGO-DAN are then assayed in each sample by LC-MS (Shimadzu LCMS-2020), by external calibration carried out with standard solutions of GO-DAN and of MGO-DAN, according to the following conditions. Column: Shim-pack XR-ODS II (75×2 mm, 80 Å), temperature: 40° C., eluent: water/methanol (50/50)+0.1% of formic acid, flow rate: 300 μl/min, analysis time: 10 min, injection volume: 1 μl, detection: ESI+ in SIM mode (m/z=181.1 and 195.1) with the following parameters: interface voltage=4.5 kV, DL voltage=10 V, Q-array DC=0 V, Q-array RF=40 V (for m/z=181.1) or 10 V (for m/z=195.1). The GO-DAN and MGO-DAN compounds are respectively detected at the retention times of 3.9 min and 5.4 min.

[3] = Scavenging of glyoxal (GO) generated from glucose incubated at 37° C., LC-MS assay after 2,3-diaminonaphthalene derivatization; conditions: for GO scavenging activity (in words): compound 100 μM added on 7th day, FIG. 1; for level of GO observed after 14 days: glucose 50 mM, phosphate buffer pH 7.4, 37° C., compound added on 7th day, final concentration 100 μM
Procedure: as §1, §2, §3, §4

Compound: Oc1cccc2cccnc12 [8-hydroxyquinoline]
- relative fluorescence (fluorescence read/maximum fluorescence of control D=20) [1]: 40%

Compound: CC1CCN(C(=O)[C@H](N)CN)CC1 [Compound 4c]
- MGO scavenging activity (in words) [2]: activity close to or even greater than that of the reference compound, aminoguanidine
- GO scavenging activity (in words) [3]: activity close to or even greater than that of the reference compound, aminoguanidine

Compound: NC[C@@H](N)C(=O)N1CCOCC1 [Compound 4e]
- relative fluorescence (fluorescence read/maximum fluorescence of control D=20) [1]: 19%

Compound: NC[C@@H](N)C(=O)N1CCN(C2CCCCC2)CC1 [Compound 4h, (2R)-2,3-diamino-1-(4-cyclohexylpiperazin-1-yl)propan-1-one]
- MGO scavenging activity (in words) [2]: activity close to or even greater than that of the reference compound, aminoguanidine
- GO scavenging activity (in words) [3]: activity close to or even greater than that of the reference compound, aminoguanidine

Compound: NC[C@@H](N)C(=O)N1CCN(C(=O)[C@H](N)CN)CC1 [Compound 6a, (2R,2′R)-1,1′-(piperazine-1,4-diyl)bis(2,3-diaminopropan-1-one)]
- MGO scavenging activity (in words) [2]: activity close to or even greater than that of the reference compound, aminoguanidine
- GO scavenging activity (in words) [3]: activity close to or even greater than that of the reference compound, aminoguanidine

Compound: NC[C@@H](N)C(=O)N1CCN(Cc2ccc(O)c3ncccc23)CC1 [Compound 11, (2R)-2,3-diamino-1-{4-[(8-hydroxyquinolin-5-yl)methyl]piperazin-1-yl}propan-1-one]
- MGO scavenging activity (in words) [2]: good capacity for scavenging of GO and of MGO
- level of MGO observed after 14 days [2]: 0.19 µM
- relative fluorescence (fluorescence read/maximum fluorescence of control D=20) [1]: 3%
- GO scavenging activity (in words) [3]: good capacity for scavenging of GO and of MGO
- level of GO observed after 14 days [3]: 3.0 µM

Compound: NC[C@@H](N)C(=O)N1CCN(C(=O)Cc2ccc(O)c3ncccc23)CC1 [Compound 13, (2R)-2,3-diamino-1-{4-[2-(8-hydroxyquinolin-5-yl)acetyl]piperazin-1-yl}propan-1-one]
- MGO scavenging activity (in words) [2]: good capacity for scavenging of GO and of MGO
- level of MGO observed after 14 days [2]: 0.12 µM
- relative fluorescence (fluorescence read/maximum fluorescence of control D=20) [1]: 2%
- GO scavenging activity (in words) [3]: good capacity for scavenging of GO and of MGO
- level of GO observed after 14 days [3]: 2.6 µM

Compound: C[C@@H](N)C(=O)N1CCOCC1 [D-Ala-Morpholine]
- relative fluorescence (fluorescence read/maximum fluorescence of control D=20) [1]: 78%

Compound: CC(C)C[C@H](NC(=O)[C@H](N)CN)C(=O)O [D-Dap-L-Leu] (HELM PEPTIDE1{[NC[C@@H](N)C(=O)[*:2]].L}$$$$V2.0)
- relative fluorescence (fluorescence read/maximum fluorescence of control D=20) [1]: 43%

Compound: N=C(N)NN [aminoguanidine, reference compound]
- level of MGO observed after 14 days [2]: 1.20 µM
- relative fluorescence (fluorescence read/maximum fluorescence of control D=20) [1]: 3%
- level of GO observed after 14 days [3]: 68.4 µM

Compound: NCCC(=O)N[C@@H](Cc1cnc[nH]1)C(=O)O [carnosine]
- relative fluorescence (fluorescence read/maximum fluorescence of control D=20) [1]: 60%
